# Measured values reported in patent publication US11739120B2, “Water soluble salts of lipidated peptides and methods for preparing and using the same” (Bridge Biotherapeutics, Inc., priority 2018, dated 2023).
# Residues, ends and D or L forms follow the SMILES beside them. *: point of attachment. Palmitoyl = CCCCCCCCCCCCCCCC(=O)*
# Assays:
# Format in all cases: physicochemical
# [1] = Approximate solubility of Compound I-1 (amorphous) in different solvents (manual dilution, visual observation); settings: ambient laboratory temperature
# Protocol: In this Example, approximate solubility tests of Compound I-1 (amorphous) were conducted in the different solvents at ambient laboratory temperature. The solubility was also tested by manual dilution combined with visual observation. In particular, a known amount of Compound I-1 was weighed and added to a vial. A known amount of solvent was gradually added to the vial with constant stirring. The solvent addition was kept at a very slow rate to minimize any excess solvent beyond what is needed to fully dissolve the solids. In order to cross-check the solubility, a small amount of Compound I-1 was added to the vial to confirm that the solution became turbid.
# [2] = Solubility of amorphous, Form A and Form E of Compound I-1 in water (shaken at 25° C., HPLC); settings: for Final pH: mother liquor
# Protocol: The solubility of amorphous, Form A or E of Compound I-1 in water was further studied. Specifically, about 250 mg Compound I-1 in amorphous, Forms A and E were each suspended in a 2 mL HPLC vial with 0.9 mL of water. Each suspension was then shaken at 25° C. under 1000 rpm. The suspensions were analyzed at 1 h and 24 h. In particular, at either the 1 h or 24 h time point, the slurries were centrifuged and analyzed by HPLC. The pH values of the mother liquors were measured, and the residues were characterized by XRPD.
# [3] = Stabilities of amorphous Compound I-1 (ICH guideline, XRPD)
# Protocol: Stabilities of amorphous Compound I-1 were also conducted according to ICH guideline.
# [4] = Storage stability of formulations of amorphous Compound I-1; settings: powder from capsules; 6 month at 25° C./60% RH or 40° C./75% RH
# Protocol: This enteric coated capsule formulation was tested for stability and dissolution. […] Thus, this formulation can be storage stable.
# This capsule formulation was also tested for stability and dissolution. […] Thus, Formulation B is also storage stable.
# This capsule formulation was also tested for stability and dissolution.
# This tablet formulation was also tested for stability and dissolution.
structure (smiles),measurement,setting,value
"CCCCCCCCCCCCCCCC(=O)N1CCC[C@H]1C(=O)N1CCC[C@H]1C(=O)NCC(=O)N[C@@H](Cc1ccc(O)cc1)C(=O)[O-].[Na+] [Compound I-1 (Amorphous), sodium palmitoyl-L-prolyl-L-prolylglycyl-L-tyrosinate] (Palmitoyl-PPGY-OH)",solubility,"[1]; 1,4-Dioxane",33.3 to 50 mg/mL
same,solubility,[1]; 1-butanol,50 to 100 mg/mL
same,solubility,[1]; 2-Methyl Tetrahydrofuran,> 100 mg/mL
same,solubility,[1]; Acetone,< 1 mg/mL
same,solubility,[1]; Acetone:H2O (1:2),50 to 100 mg/mL
same,solubility,[1]; Acetonitrile,< 1 mg/mL
same,solubility,[1]; Acetonitrile:H2O (1:1),50 to 100 mg/mL
same,solubility,[1]; Cyclohexane,< 1 mg/mL
same,solubility,[1]; DMF,20 to 33.3 mg/mL
same,solubility,[1]; DMSO,50 to 100 mg/mL
same,solubility,[1]; Ethanol,50 to 100 mg/mL
same,solubility,[1]; Ethanol:H2O (1:1),50 to 100 mg/mL
same,solubility,[1]; Ethanol:H2O (3:1),50 to 100 mg/mL
same,solubility,[1]; Ethyl acetate,< 1 mg/mL
same,solubility,[1]; Heptane,< 1 mg/mL
same,solubility,[1]; Isopropyl acetate,< 1 mg/mL
same,solubility,[1]; Isopropyl alcohol,50 to 100 mg/mL
same,solubility,[1]; Methanol,> 100 mg/mL
same,solubility,[1]; Methanol:H2O (1:1),> 100 mg/mL
same,solubility,[1]; Methanol:H2O (3:1),> 100 mg/mL
same,solubility,[1]; Methyl ethyl ketone,3.3 to 5 mg/mL
same,solubility,[1]; Methyl isobutyl ketone,1.2 to 1.4 mg/mL
same,solubility,[1]; Methyl t-butyl ether,< 1 mg/mL
same,solubility,[1]; N-methyl pyrrolidone,50 to 100 mg/mL
same,solubility,[1]; Tetrahydrofuran,> 100 mg/mL
same,solubility,[1]; Tetrahydrofuran:H2O (1:1),50 to 100 mg/mL
same,solubility,[1]; Toluene,50 to 100 mg/mL
same,solubility,[1]; Water,> 100 mg/mL
same,Final pH,"[2]; water, 25° C., time point 1 hour",9.05
same,Final pH,"[2]; water, 25° C., time point 24 hours",9.03
same,XRPD pattern (wet),"[2]; residue of the suspension in water, 25° C., time point 24 hours",Mostly D
same,Solubility at 25° C.,"[2]; water, time point 1 hour",239.1 mg/mL
same,solubility at 1 h,"[2]; water, time point 1 hour",> 200 mg/mL
same,Solubility at 25° C.,"[2]; water, time point 24 hours",180.1 mg/mL
same,solubility at 24 h,"[2]; water, time point 24 hours",~180 mg/mL
same,form transformation (XRPD),"[3]; all tested conditions (40° C./75% RH with protection from moisture, 60° C., ambient) except high humidity",no form transformation
same,form transformation (XRPD),[3]; high humidity condition for 1 week,could be transferred into Form A
same,"crystalline conversion (X-ray diffractograms, FIG. 12)",[4],no crystalline conversion was observed
